Data as given in BindingDB's records for patent US10188615 (ACUCELA INC., 2019).
pIC50: −log10 of the molar value.

The compounds below were run against T1, Retinoid isomerohydrolase (Human, UniProt Q16518) (assay: In Vitro Isomerase Inhibition Assay).
T1 sequence (Q16518 whole entry): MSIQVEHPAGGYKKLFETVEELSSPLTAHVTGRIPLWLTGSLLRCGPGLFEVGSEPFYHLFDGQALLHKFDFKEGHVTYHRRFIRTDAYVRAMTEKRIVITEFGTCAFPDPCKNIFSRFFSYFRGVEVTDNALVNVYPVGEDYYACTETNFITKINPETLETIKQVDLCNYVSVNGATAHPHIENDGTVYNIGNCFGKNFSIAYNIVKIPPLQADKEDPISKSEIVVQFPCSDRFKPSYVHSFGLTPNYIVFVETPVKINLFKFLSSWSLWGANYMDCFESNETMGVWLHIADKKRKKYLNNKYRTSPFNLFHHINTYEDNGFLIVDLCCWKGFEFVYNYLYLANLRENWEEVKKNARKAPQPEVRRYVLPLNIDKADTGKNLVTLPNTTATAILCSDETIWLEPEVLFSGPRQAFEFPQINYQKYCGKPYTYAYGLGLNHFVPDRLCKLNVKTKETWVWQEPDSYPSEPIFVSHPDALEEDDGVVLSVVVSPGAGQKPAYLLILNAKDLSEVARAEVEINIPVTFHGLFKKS

Structure (SMILES)	IC50	pIC50
C[C@H](CN)Oc1cccc(OCC2CCCCC2)c1 [US10188615, Example 53]	in the range around 550 nM	
NCCCc1cccc(OCc2ccccc2)c1 [US10188615, Example 59]	in the range around 550 nM	
CCC(CC)COc1cccc(OCCN)c1 [US10188615, Example 36]	in the range around 55 nM	
NCCOc1cccc(OCc2c(Cl)cccc2Cl)c1 [US10188615, Example 84]	in the range around 550 nM	
C[C@H](CN)[C@H](O)c1cccc(OCC2CCCCC2)c1 [US10188615, Example 76]	in the range around 5500 nM	
NCCOc1cccc(OCC2CC2)c1 [US10188615, Example 57]	in the range around 550 nM	
NCCCc1cccc(OCC2CC2)c1 [US10188615, Example 60]	in the range around 550 nM	
CCCC(CCC)COc1cccc(O[C@@H](C)CN)c1 [US10188615, Example 63]	in the range around 550 nM	
NCCCc1cccc(OCc2c(Cl)cccc2Cl)c1 [US10188615, Example 91]	in the range around 550 nM	
CCCC(CCC)COc1cccc(OCCN)c1 [US10188615, Example 25]	in the range around 55 nM	
NCCOc1cccc(OCCc2ccccc2)c1 [US10188615, Example 47]	in the range around 55 nM	
NCCC(O)c1cccc(OCc2ccccc2)c1 (stereo not given) [US10188615, Example 37]	in the range around 55 nM	
CCCC(CCC)COc1cccc(O[C@H](C)CN)c1 [US10188615, Example 51]	in the range around 550 nM	
NCCOc1cccc(OCCCc2ccccc2)c1 [US10188615, Example 89]	in the range around 550 nM	
NCCCc1cccc(OCCCCOCc2ccccc2)c1 [US10188615, Example 42]	in the range around 5500 nM	
COCCCOc1cccc(OCCN)c1 [US10188615, Example 85]	in the range around 550 nM	
C[C@@H](CN)[C@H](O)c1cccc(OCC2CCCCC2)c1 [US10188615, Example 73]	in the range around 55 nM	
NCCCc1cccc(OCCCc2ccccc2)c1 [US10188615, Example 96]	in the range around 550 nM	

Structure (SMILES)	IC50	pIC50
C[C@@H](CN)Oc1cccc(OCC2CCCC2)c1 [US10188615, Example 64]	in the range around 550 nM	
NCCCc1cccc(OCCc2ccccc2)c1 [US10188615, Example 70]	in the range around 550 nM	
NCCC(O)c1cccc(OCC2CCCCO2)c1 (stereo not given) [US10188615, Example 83]	in the range around 55 nM	
NCCCc1cccc(OCC2CCC2)c1 [US10188615, Example 61]	in the range around 550 nM	
NCCC(CO)c1cccc(OCC2CCCCC2)c1 (stereo not given) [US10188615, Example 80]	in the range around 550 nM	
CC(C)CCOc1cccc(CCCN)c1 [US10188615, Example 33]	in the range around 550 nM	
NCCOc1cccc(OCC2(O)CCCCC2)c1 [US10188615, Example 26]	in the range around 550 nM	
CCC(O)(CC)COc1cccc(CCCN)c1 [US10188615, Example 32]	in the range around 55 nM	
COCCCCOc1cccc(CCCN)c1 [US10188615, Example 41]	in the range around 550 nM	
COCCOc1cccc(CCCN)c1 [US10188615, Example 40]	in the range around 5500 nM	
NCCCc1cccc(OCCCO)c1 [US10188615, Example 98]	in the range around 5500 nM	
CCC(CC)COc1cccc(C[C@H](O)CN)c1 [US10188615, Example 66]	in the range around 55 nM	
CC[C@H](CN)[C@@H](O)c1cccc(OCC2CCCCC2)c1 [US10188615, Example 49]	in the range around 55 nM	
NCCOc1cccc(OCCCOCc2ccccc2)c1 [US10188615, Example 94]	in the range around 550 nM	
NCCC(O)c1cccc(OCCc2ccccc2)c1 (stereo not given) [US10188615, Example 54]	in the range around 55 nM	
C[C@@H](CN)[C@@H](O)c1cccc(OCC2CCCCC2)c1 [US10188615, Example 75]	in the range around 55 nM	
COCCOCCOCC(=O)NCCC(O)c1cccc(OCC2CCCCC2)c1 (stereo not given) [US10188615, Example 77]	in the range around 5500 nM	
CC(C)CCOc1cccc(OCCN)c1 [US10188615, Example 46]	in the range around 55 nM	

Results, then the compound that gave them:

IC50	pIC50	Structure (SMILES)
in the range around 55 nM		CC(=O)O[C@@H]1CCCC[C@@H]1COc1cccc([C@H](O)CCN)c1 [US10188615, Example 174]
in the range around 5500 nM		NCCOc1cccc(OCCCCCOCc2ccccc2)c1 [US10188615, Example 134]
in the range around 550 nM		Cc1c(OCCN)cccc1OCC1CCCCC1 [US10188615, Example 164]
in the range around 550 nM		NCCS(=O)(=O)c1cccc(OCC2CCCCC2)c1 [US10188615, Example 125]
in the range around 55 nM		NCCC(O)c1cccc(OCC(O)c2ccccc2)c1 (stereo not given) [US10188615, Example 161]
in the range around 55 nM		NCCC(O)c1cccc(OCCCCOCc2ccccc2)c1 (stereo not given) [US10188615, Example 114]
in the range around 55 nM		NCCOc1cccc(OCC2CCCC2)c1 [US10188615, Example 104]
in the range around 5500 nM		NCCC(O)c1cc(OCC2CCCCC2)ccc1Br (stereo not given) [US10188615, Example 146]
in the range around 5500 nM		Cc1ccc(OCC2CCCCC2)cc1OCCN [US10188615, Example 160]
in the range around 55 nM		NCC[C@@H](O)c1cc(O)cc(OCC2CCCCC2)c1 [US10188615, Example 179]
in the range around 550 nM		NCCOc1cccc(OCC2(O)CCCCCCC2)c1 [US10188615, Example 139]
in the range around 55 nM		NCCC(O)c1cccc(OCCCCCOCc2ccccc2)c1 (stereo not given) [US10188615, Example 115]
in the range around 55 nM		NCCCc1cccc(OCC2CCCC2)c1 [US10188615, Example 103]
in the range around 550 nM		NCCCc1cccc(OCC(O)c2ccccc2)c1 (stereo not given) [US10188615, Example 150]
in the range around 550 nM		NCCCc1cccc(OCC2(O)CCCCCCC2)c1 [US10188615, Example 135]
in the range around 55 nM		NCCC(O)c1cccc(OCCCCCO)c1 (stereo not given) [US10188615, Example 166]
in the range around 550 nM		NCCCc1cccc(OCC2CCCCCCC2)c1 [US10188615, Example 99]
in the range around 550 nM		NCCNc1cccc(OCC2CCCCC2)c1 [US10188615, Example 129]
in the range around 550 nM		NCCOc1cccc(OCCCCCO)c1 [US10188615, Example 143]
in the range around 55 nM		COCCCOc1cccc(C(O)CCN)c1 (stereo not given) [US10188615, Example 108]

IC50	pIC50	Structure (SMILES)
in the range around 5500 nM		NCCCc1cccc(OCCCCCOCc2ccccc2)c1 [US10188615, Example 136]
	6.00 to 7.00	NC[C@H](O)[C@@H](O)c1cccc(OCC2CCCCC2)c1 [US10188615, Example 177]
in the range around 5500 nM		CCCC(O)COc1cccc(OCCN)c1 (stereo not given) [US10188615, Example 159]
in the range around 55 nM		NCCC(O)c1cccc(OCC2CCCCCCC2)c1 (stereo not given) [US10188615, Example 106]
in the range around 550 nM		CN(C)C(=O)CCCOc1cccc(C(O)CCN)c1 (stereo not given) [US10188615, Example 157]
in the range around 5500 nM		CN(C)C(=O)CCCOc1cccc(OCCN)c1 [US10188615, Example 138]
in the range around 550 nM		NCCCc1cc(F)cc(OCC2CCCCC2)c1 [US10188615, Example 168]
in the range around 550 nM		CNCCC(=O)c1cccc(OCC2CCCCC2)c1 [US10188615, Example 181]
in the range around 5500 nM		CN(CCN)c1cccc(OCC2CCCCC2)c1 [US10188615, Example 128]
in the range around 550 nM		NCCOc1cccc(OCCCCO)c1 [US10188615, Example 156]
in the range around 550 nM		NC/C=C/c1cc(F)cc(OCC2CCCCC2)c1 [US10188615, Example 198]
in the range around 55 nM		N=C(N)CC(O)c1cccc(OCC2CCCCC2)c1 (stereo not given) [US10188615, Example 130]
in the range around 550 nM		NCCCc1cccc(OCc2nccs2)c1 [US10188615, Example 122]
in the range around 55 nM		NCCSc1cccc(OCC2CCCCC2)c1 [US10188615, Example 123]
in the range around 55 nM		NCC#Cc1cccc(OCC2CCCCC2)c1 [US10188615, Example 197]
in the range around 5500 nM		NCCOc1cccc(OCC(O)c2ccccc2)c1 (stereo not given) [US10188615, Example 145]
in the range around 550 nM		NCCC(O)c1cccc(OCCCCO)c1 (stereo not given) [US10188615, Example 165]
in the range around 55 nM		NCCCc1cccc(OC[C@H]2CCCC[C@H]2O)c1 (relative stereo) [US10188615, Example 147]
in the range around 550 nM		CCCC(O)COc1cccc(CCCN)c1 (stereo not given) [US10188615, Example 167]
